For assay [1], the target named is T1, Heat shock factor protein 1 (Mus musculus, UniProt P38532).
T1 sequence (P38532 whole entry): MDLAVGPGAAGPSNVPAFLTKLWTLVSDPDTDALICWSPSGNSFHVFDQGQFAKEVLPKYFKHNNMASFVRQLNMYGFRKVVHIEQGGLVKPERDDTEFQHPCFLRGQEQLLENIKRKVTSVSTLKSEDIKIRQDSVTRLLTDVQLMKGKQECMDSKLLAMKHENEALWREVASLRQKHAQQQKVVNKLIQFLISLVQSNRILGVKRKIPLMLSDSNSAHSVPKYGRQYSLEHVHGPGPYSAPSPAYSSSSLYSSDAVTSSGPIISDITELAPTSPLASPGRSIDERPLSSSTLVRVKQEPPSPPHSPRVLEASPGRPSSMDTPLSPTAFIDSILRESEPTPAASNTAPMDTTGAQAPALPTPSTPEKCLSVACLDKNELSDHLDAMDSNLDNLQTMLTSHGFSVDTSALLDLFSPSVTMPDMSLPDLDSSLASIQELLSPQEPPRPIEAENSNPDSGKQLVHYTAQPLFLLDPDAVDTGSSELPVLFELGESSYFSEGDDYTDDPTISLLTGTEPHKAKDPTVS
Briefly: decrease of HSF1-responsive luciferase luminescence – cell-based, NIH3T3, dose retest, confirmation (AID 2382).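 Further: NIH3T3 fibroblasts with HSF1-driven luciferase reporter stressed by proteasome inhibitor MG132; luminescence from HSF1-driven luciferase expression after 8 hours of MG132 stress.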 It counts as functional.

Assay [2] deals with T2, Cytochrome P450 1A2 (Homo sapiens, UniProt P05177).
T2 sequence (P05177 whole entry): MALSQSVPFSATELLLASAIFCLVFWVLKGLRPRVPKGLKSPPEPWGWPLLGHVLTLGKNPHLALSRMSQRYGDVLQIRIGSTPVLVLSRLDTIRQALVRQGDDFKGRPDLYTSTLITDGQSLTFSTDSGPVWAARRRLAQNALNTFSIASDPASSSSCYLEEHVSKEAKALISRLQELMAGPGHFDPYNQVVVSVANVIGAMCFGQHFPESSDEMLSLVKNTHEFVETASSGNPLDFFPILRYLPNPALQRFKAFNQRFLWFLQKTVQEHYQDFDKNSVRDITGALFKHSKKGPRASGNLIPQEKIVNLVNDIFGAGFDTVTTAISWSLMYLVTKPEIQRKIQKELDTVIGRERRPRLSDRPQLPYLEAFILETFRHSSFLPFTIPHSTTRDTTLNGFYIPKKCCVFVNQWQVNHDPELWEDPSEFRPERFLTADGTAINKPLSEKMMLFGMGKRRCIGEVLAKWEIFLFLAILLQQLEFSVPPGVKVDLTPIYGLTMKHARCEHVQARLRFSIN

The target in assay [3] is Cytochrome P450 2D6 (Homo sapiens, UniProt P10635).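 Further: CYP2D6 member of a cytochrome P450 panel assay.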
Chain of Cytochrome P450 2D6 (P10635 whole entry): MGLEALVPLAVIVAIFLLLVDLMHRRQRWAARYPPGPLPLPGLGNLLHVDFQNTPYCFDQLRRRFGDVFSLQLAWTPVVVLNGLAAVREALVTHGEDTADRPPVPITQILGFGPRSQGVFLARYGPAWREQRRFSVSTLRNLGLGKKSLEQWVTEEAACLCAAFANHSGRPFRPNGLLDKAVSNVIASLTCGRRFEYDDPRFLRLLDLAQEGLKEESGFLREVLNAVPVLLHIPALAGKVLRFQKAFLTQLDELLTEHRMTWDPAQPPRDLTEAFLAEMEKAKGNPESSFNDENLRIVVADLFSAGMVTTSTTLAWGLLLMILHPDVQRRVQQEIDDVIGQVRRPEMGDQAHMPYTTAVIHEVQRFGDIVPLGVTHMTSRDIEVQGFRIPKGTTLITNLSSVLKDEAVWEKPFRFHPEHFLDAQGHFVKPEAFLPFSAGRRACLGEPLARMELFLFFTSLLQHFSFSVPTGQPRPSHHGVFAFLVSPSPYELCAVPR
Assay [4] concerns the target Cytochrome P450 3A4 (Homo sapiens, UniProt P08684).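 Further: CYP3A4 tested as one member of a cytochrome P450 panel screen.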
Assay [5] has as its target T3, Corticotropin-releasing factor receptor 2/Corticotropin-releasing factor-binding protein (Homo sapiens, UniProt P24387+Q13324).
T3 sequence (Q13324 whole entry): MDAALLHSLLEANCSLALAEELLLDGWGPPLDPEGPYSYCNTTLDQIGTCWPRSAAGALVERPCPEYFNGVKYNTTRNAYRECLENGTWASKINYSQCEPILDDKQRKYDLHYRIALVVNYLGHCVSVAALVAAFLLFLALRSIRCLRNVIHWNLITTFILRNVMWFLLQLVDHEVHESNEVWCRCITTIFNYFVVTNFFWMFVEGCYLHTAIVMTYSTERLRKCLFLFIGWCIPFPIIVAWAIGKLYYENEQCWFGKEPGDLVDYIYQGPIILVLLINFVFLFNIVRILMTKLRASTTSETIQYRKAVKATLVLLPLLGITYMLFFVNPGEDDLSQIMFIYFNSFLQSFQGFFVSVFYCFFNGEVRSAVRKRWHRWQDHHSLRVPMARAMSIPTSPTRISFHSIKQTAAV
T3 sequence (P24387 whole entry): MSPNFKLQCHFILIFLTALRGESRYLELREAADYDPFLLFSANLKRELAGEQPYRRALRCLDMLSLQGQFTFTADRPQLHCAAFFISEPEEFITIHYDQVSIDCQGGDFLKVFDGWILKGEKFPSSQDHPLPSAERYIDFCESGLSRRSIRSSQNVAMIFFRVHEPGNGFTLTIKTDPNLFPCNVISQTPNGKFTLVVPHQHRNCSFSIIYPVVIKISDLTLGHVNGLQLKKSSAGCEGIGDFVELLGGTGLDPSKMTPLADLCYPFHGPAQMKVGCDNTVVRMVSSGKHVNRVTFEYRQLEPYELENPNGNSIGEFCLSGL
Briefly: Dose Response confirmation of uHTS hits for small molecule antagonists of the CRF-binding protein and CRF-R2 receptor complex. The settings on record: read-out: IC50_Mean. It counts as functional.

For assay [6], the target named is T3, Corticotropin-releasing factor receptor 2/Corticotropin-releasing factor-binding protein. Put plainly: activators of CRF receptor 2 with binding protein – uHTS hits, confirmation (AID 602473). The settings on record: read-out: EC50_Mean. In kind it is functional.
In assay [7] the target is Cytochrome P450 2C9 (Homo sapiens, UniProt P11712).
Chain of Cytochrome P450 2C9 (P11712 whole entry): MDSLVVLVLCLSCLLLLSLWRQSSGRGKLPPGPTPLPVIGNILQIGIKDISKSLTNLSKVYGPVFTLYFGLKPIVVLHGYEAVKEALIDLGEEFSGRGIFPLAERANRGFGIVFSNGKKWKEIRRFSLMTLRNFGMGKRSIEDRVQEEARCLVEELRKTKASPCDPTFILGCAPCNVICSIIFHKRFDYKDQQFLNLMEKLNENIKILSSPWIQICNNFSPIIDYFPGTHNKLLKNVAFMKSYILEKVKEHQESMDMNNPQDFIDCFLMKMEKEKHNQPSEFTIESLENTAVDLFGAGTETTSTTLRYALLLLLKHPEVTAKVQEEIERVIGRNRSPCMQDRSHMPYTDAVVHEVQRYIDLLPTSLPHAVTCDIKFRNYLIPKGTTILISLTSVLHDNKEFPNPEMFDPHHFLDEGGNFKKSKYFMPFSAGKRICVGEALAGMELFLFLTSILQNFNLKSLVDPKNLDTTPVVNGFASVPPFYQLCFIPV
The target in assay [8] is T4, Rac GTPase-activating protein 1 (Homo sapiens, UniProt Q9H0H5).
T4 sequence (Q9H0H5 whole entry): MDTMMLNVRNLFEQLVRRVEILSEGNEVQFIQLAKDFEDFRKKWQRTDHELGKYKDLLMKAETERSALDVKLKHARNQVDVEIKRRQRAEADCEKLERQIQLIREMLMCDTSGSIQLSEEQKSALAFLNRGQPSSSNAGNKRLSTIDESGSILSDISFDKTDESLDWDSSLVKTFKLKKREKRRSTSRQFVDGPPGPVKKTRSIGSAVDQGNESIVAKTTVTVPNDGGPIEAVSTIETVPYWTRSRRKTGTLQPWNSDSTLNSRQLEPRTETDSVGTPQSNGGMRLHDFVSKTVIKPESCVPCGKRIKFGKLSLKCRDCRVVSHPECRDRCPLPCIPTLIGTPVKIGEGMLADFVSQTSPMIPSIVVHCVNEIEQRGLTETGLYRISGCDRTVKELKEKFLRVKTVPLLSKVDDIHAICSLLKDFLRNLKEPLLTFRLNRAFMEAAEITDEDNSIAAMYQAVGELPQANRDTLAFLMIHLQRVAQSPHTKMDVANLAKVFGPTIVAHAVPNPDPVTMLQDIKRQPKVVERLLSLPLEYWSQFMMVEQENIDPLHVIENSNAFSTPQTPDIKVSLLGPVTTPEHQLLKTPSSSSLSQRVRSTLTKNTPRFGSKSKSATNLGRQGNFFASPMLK
Put plainly: blockers of MgcRacGAP-driven Rac1 GTP hydrolysis – biochemical, ADP Hunter fluorescence, primary and confirmatory, confirmation (AID 624330). In kind it is functional.

Each structure is given as a SMILES string. Calls of active or inactive are those of the source.

One may read the AC50 as the concentration giving half of the maximal activity seen.

Chain of Cytochrome P450 3A4 (P08684 whole entry): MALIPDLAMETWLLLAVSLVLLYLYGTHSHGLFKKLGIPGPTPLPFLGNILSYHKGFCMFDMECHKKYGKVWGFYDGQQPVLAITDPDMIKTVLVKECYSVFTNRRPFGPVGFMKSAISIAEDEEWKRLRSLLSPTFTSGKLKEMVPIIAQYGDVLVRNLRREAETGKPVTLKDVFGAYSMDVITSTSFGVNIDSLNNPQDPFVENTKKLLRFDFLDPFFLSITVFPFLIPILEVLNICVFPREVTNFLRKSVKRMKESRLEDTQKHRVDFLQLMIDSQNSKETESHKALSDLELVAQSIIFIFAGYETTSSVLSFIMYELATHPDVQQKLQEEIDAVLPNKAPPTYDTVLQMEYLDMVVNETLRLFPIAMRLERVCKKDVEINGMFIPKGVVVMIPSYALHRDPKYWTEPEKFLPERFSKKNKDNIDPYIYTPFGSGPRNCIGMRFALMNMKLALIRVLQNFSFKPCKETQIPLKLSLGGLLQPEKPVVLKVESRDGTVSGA

Regarding `COc1cccc(N2CCN(C(S)=Nc3cc(C)cc(C)c3)CC2)c1`, in assay [1], the EC50 was 94.4 µM (active).

Turning to `CCOc1ccc2nc(NC(=O)/C=C/c3ccc4c(c3)OCO4)sc2c1`, the EC50 in assay [1] is given as > 195 µM (not active).

As for `Cc1ccc(NC(=O)Cn2cnc3c(cnn3C(C)(C)C)c2=O)cc1`, the AC50 in assay [2] was 31.6 µM (inconclusive); in assay [3], 14.1 µM (inconclusive); in assay [4], 12.6 µM (inconclusive).

For `O=C(Nc1nc(-c2ccccc2)cs1)c1ccc2c(c1)S(=O)(=O)c1ccccc1C2=O`, in assay [5], the IC50 was > 47.1 µM (inactive). Also, the EC50 in assay [6] is > 53 µM (inactive).

Take `CCN(c1ccccc1)S(=O)(=O)c1cc(NC(=O)CSc2nnc(O)nc2O)ccc1Cl`: the IC50 in assay [5] is > 47.1 µM (inactive). Moreover, in assay [6], the EC50 was > 53 µM (inactive).

With `O=C(CC1CCCCC1)NCc1ccccn1`, the EC50 in assay [1] was > 195 µM (not active).

As for `COc1ccc(N2CCN(c3oc(Cc4ccccc4)nc3C#N)CC2)cc1`, the EC50 in assay [1] is on record as > 195 µM (not active).

Consider `CCCc1cc(=O)nc(SCC(=O)Nc2ccc(OC(F)F)cc2)[nH]1`, for which the IC50 in assay [5] is > 47.1 µM (inactive). In addition, in assay [6], the EC50 was > 53 µM (inactive).

For `CN1N=C2c3ccccc3CCC2C1c1ccc(C(F)(F)F)cc1` (stereo not drawn), in assay [1], the EC50 is 79.4 µM (active).

Regarding `C[C@@]12C=CC(=O)C=C1CC[C@@H]1C2=CC[C@]2(C)[C@@H]1CC[C@H]2C(=O)CN1CCN(c2cc(N3CCCC3)nc(N3CCCC3)n2)CC1`, the AC50 in assay [2] is 12.6 µM (inconclusive); in assay [3] it was 25.1 µM (inconclusive); in assay [7], 12.6 µM (inconclusive).

With `O=C1c2ccccc2-c2ncnc3c(N4CCOCC4)cc(N4CCOCC4)c1c23`, the IC50 in assay [5] is > 47.1 µM (inactive). Moreover, the EC50 in assay [6] was > 53 µM (inactive).

With `CCCCOc1cccc(C2C(C(=O)c3cccs3)=C(O)C(=O)N2Cc2cccnc2)c1` (stereo not drawn), in assay [1], the EC50 is > 195 µM (not active).

In the case of `COc1ccc(Nc2nc(Cl)nc(NCc3ccco3)n2)c(OC)c1`, the IC50 in assay [5] is > 47.1 µM (inactive). Moreover, the EC50 in assay [6] was > 53 µM (inactive).

As for `Cc1ccccc1C(=O)NCC(=O)OC1CCCCC1=O` (stereo not drawn), the IC50 in assay [5] was > 47.1 µM (inactive). Besides, in assay [6], the EC50 was > 53 µM (inactive).

Turning to `Cn1c2ccccc2c2cnn(CC(=O)N3CCC4(CC3)OCCO4)c(=O)c21`, the EC50 in assay [1] was 39.3 µM (active).

In the case of `COc1cc2c(cc1OC)C(/C=C(\O)c1ccc(C)cc1)=NCC2`, in assay [1], the EC50 is > 195 µM (not active).

Take `COC(=O)N1CCC2(CCCN(C(=O)Nc3ccc(OC)cc3)C2)CC1`: the values for the AC50 in assay [2] and in assay [4] were 20 µM (inconclusive) and 25.1 µM (inconclusive), respectively.

Turning to `Cc1ccc(CNC(=O)CCC(=O)c2cccs2)cc1`, the IC50 in assay [5] is > 47.1 µM (inactive). Moreover, the EC50 in assay [6] is > 53 µM (inactive).

Regarding `Cc1ccc(OCCC(=O)OCC(=O)Nc2ccc(N3CCOCC3)cc2)cc1`, the EC50 in assay [1] is recorded as > 195 µM (not active).

For `COc1cccc(OC)c1C(=O)N1CCN(Cc2cccnc2)CC1`, the IC50 in assay [8] was 203 µM (active); in assay [5] it was > 47.1 µM (inactive). Moreover, the EC50 in assay [6] was > 53 µM (inactive).

As for `Cc1cc(OCCCC(=O)Nc2cc(S(=O)(=O)N3CCOCC3)ccc2N2CCOCC2)ccc1Cl`, in assay [5], the IC50 was > 47.1 µM (inactive). Further, the EC50 in assay [6] was > 53 µM (inactive).

For `CCC(C)c1ccc(S(=O)(=O)N2CCN(CC(O)COCC3CCCO3)CC2)cc1` (stereo not drawn), the IC50 in assay [5] is > 47.1 µM (inactive). Also, in assay [6], the EC50 is > 53 µM (inactive).

With `COc1ccc(N2CCN(C(=O)CCS(=O)(=O)c3ccc4c(c3)NC(=O)CO4)CC2)cc1`, in assay [5], the IC50 is > 47.1 µM (inactive). The EC50 in assay [6] is > 53 µM (inactive).

Consider `Cc1ccc(S(=O)(=O)N/N=C/c2c(C)nn(-c3ccccc3)c2C)cc1`, for which the EC50 in assay [1] was > 195 µM (not active).

On to `NCCCC(=O)O` [GAMMA-AMINOBUTYRIC ACID], for which the AC50 in assay [2] is 31.6 µM (inconclusive). Moreover, in assay [1], the EC50 is reported as > 195 µM (not active).
